Data published in patent US20080305097A1, “Use of Protease or a Protease Inhibitor for the Manufacture of Medicaments” (YEDA RESEARCH AND DEVELOPMENT CO., LTD., priority 2004, published 2008).

Assays:
[1] = system: TRAP+ multinucleated osteoclasts; assay: Osteoblast/BM co-culture, TRAP+ multinucleated osteoclast count; assay type: cell-based, mouse; details: G-CSF 50 ng/ml, HGF 50 ng/ml, SDF-1 10 and 100 ng/ml; 5 days
Procedure: Osteoclast precursors are stimulated by cell-cell contact with osteoblasts to become activated multinucleated TRAP+ bone resorbing cells. To obtain active osteoclasts in vitro, a clvarian osteoblasts are incubated with Vitamine D3 and PG2E which potentiate their M-CSF production and RANKL expression, needed for osteoclast activation. BM cells which contain osteoclast precursors are seeded then on the osteoblast monolayer, for 5 days, to obtain active multinucleated osteoclasts.
A co-culture of primary mouse osteoblasts and BM (containing ocl precursors as detailed above) was seeded in the presence of G-CSF (50 ng/ml), HGF (50 ng/ml), or SDF-1 (10 and 100 ng/ml). Five days later, TRAP+ multinucleated osteoclasts in the cultures were stained (as described in Example 1) and counted 5 days later.

SDF-1 [2] = assay: SDF-1 transcription (RT-PCR) and secretion (ELISA) in primary calvaria osteoblasts; assay type: cell-based, mouse; details: 50 ng/ml, 3 days
Procedure: Osteoblast were incubated with G-CSF, HGF or remained untreated, and SDF-1 transcription and expression was determined in such cells (FIG. 9).
Primary calvaria osteoblasts were cultured for 3 days in the presence of SDF-1 (PeproTech, 100 […]), HGF (PeproTech, 50 ng/ml) and G-CSF (Filgrastin, Roche, 50 ng/ml). Conditioned media was collected to determine SDF-1 concentration by ELISA, as described in Example 2. Determination of SDF-1 transcription and expression as in Example 2.

osteoclast = assay: In vivo osteoclast activation by SDF-1 or HGF, TRAP staining; parameters: species or system Balb/c mice; details: subcutaneously five consecutive days, 10 mcg SDF-1 or 1.5 mcg HGF
Procedure: (§1) We carried out the following experiment to verify in vivo our hypothesis that SDF-1 induces osteoclast activation and hematopoietic progenitor cell (HPC) mobilization. Balb/c mice were injected subcutaneously for five consecutive days with 10 mcg SDF-1 or 1.5 mcg HGF or both, and osteoclast activation (measured by TRAP+ staining as in Example 1) and mobilization to the peripheral blood, (assayed in semi solid culture as in Example 1) was determined.

[3] = system: hematopoietic progenitor cell (HPC); assay: In vivo progenitor mobilization by SDF-1 or HGF, semi solid culture; parameters: species or system Balb/c mice; details: subcutaneously five consecutive days, 10 mcg SDF-1 or 1.5 mcg HGF
Procedure: as §1
(§2) In order to detect the levels of mouse progenitors in the blood circulation, semisolid cultures were performed as previously described (Petit, Nat Immunol, 2002). In brief, mouse BM cells (3×10^5 cells/ml) were plated in 0.9% methylcellulose (Sigma), 30% FCS, 5×10^−5M 2ME, 50 ng/ml SCF, 5 ng/ml IL-3, 5 ng/ml GM-CSF (R&D), and 2 u/ml erythropoietin (Orto Bio Tech, Don Mills, Canada). The cultures were incubated at 37° C. in a humidified atmosphere containing 5% CO2 and scored 7 days later by inverted microscopy by morphologic criteria.

TRAP+ osteoclasts = assay: TRAP staining of activated osteoclasts in BM after LPS; assay type: in vivo, Balb/c mice; details: LPS 250 μg/mouse single injection, 5 days later
Procedure: LPS (Sigma) was administered to Balb/c mice in a single subcutaneous injection of 250 μg/mouse, and saline was injected instead of LPS in control groups. 5 days following LPS administration, mice were sacrificed, bones were fixed, decalcified, paraffin embedded and sectioned, BM harvested, and the level of TRAP+ osteoclast (activated osteoclast) monitored.
In this assay substrate is exogeneously provided to measure intrinsic activity of the tissue TRAP in the BM of LPS treated mice (FIGS. 1A and B).

HGF = assay: Semi quantitative RT-PCR of BM after LPS: HGF; assay type: in vivo, mouse; details: LPS treated mice, 5 days
Procedure: (§3) One femur of each mouse was flushed with Trireagent for RNA extraction. 1 ug RNA was used for the preparation of cDNA. Semi quantitative RT-PCR was used to measure the transcription of mouse SDF-1, HGF and CTK. The following primers were used: SDF-1 (Ponomaryov, 2000, J. Clin. Invest. 106:1331): left primer (SEQ ID NO: 1) 5′-[…]-3′, right primer (SEQ ID NO: 2) 5′-[…]-3′. HGF (Weinstein, 2001, Moll Cell boil, 21(15):5122): left primer (SEQ ID NO: 3) 5′-[…]-3′, right primer (SEQ ID NO: 4) 5′-[…]-3′. CTK: left primer (SEQ ID NO: 5) 5′-[…]-3′, right primer (SEQ ID NO: 6) 5′-[…]-3′.

CTK = assay: Semi quantitative RT-PCR of BM after LPS: CTK; assay type: in vivo, mouse; details: LPS treated mice, 5 days
Procedure: as §3

SDF-1 [4] = assay: Semi quantitative RT-PCR of BM after LPS: SDF-1; assay type: in vivo, mouse; details: LPS treated mice, 5 days
Procedure: as §3

SDF-1 [5] = assay: SDF-1 concentration in bone marrow by ELISA after LPS; assay type: in vivo, Balb/c mice
Procedure: Mice were administered for 5 days with LPS as described in example 1 and SDF-1 concentration in bone marrow was monitored (by ELISA as described by Petit et al 2002).
(§4) In order to verify that the progenitor increase detected in PB in the LPS treated mice, results from the egress or mobilization of cells from the bone marrow, mononuclear cells (MNC) were monitored in the BM and in PB by counting numbers of ficolled WBC (leukocytes), using hemacytometer shortly after LPS treatment (16 hours post LPS treatment) and in BM and PB of non treated mice (FIG. 3).

progenitors = assay: CFU assay of progenitors in peripheral blood after LPS; assay type: in vivo, Balb/c mice
Procedure: Mice were administered for 5 days with LPS (as described in Example 1) and progenitor increase in peripheral blood (PB) was measured (as in Example 9).
as §2

mononuclear cells (MNC) = assay: Mononuclear cell counts in BM and PB by hemacytometer after LPS; assay type: in vivo, Balb/c mice; details: 16 hours post LPS, versus non treated mice
Procedure: as §4

CXCR4 = CXCR4 expression in BM and PB by flow cytometry after LPS; assay type: in vivo, Balb/c mice; details: both BM and PB, 16 hours post LPS
Procedure: We monitored CXCR4 expression in BM and PB of LPS treated mice, 16 hours post LPS administration, and in control non treated mice.

| Substance | level of activated TRAP+ osteoclasts [1] | SDF-1 transcription in osteoblasts (SDF-1 [2]) | SDF-1 production in osteoblasts (SDF-1 [2]; conditioned media ELISA) | osteoclast activation in vivo (osteoclast) | mobilization of progenitors in vivo [3] | TRAP+ osteoclasts in the BM (TRAP+ osteoclasts) | HGF transcription in the BM (HGF) | CTK transcription in the BM (CTK) | SDF-1 transcription in the BM (SDF-1 [4]) | decrease in BM SDF-1 concentration (SDF-1 [5]; 16 hours post LPS, versus non treated mice) | BM SDF-1 concentration (SDF-1 [5]; 5 days LPS) [ng/mg protein] | decrease in BM SDF-1 concentration (SDF-1 [5]; 5 days LPS, versus non-treated control) | progenitor mobilization (progenitors; 16 hours post LPS) | level of progenitors in PB, higher than control non-treated mice (progenitors; 5 days LPS) | progenitor colonies in PB (progenitors; 5 days LPS) | decrease of MNC cells in the BM (mononuclear cells (MNC)) | increase of MNC cells in the PB (mononuclear cells (MNC)) | level of CXCR4 expression (CXCR4) |
| --- | --- | --- | --- | --- | --- | --- | --- | --- | --- | --- | --- | --- | --- | --- | --- | --- | --- | --- |
| HGF: hepatocyte growth factor (PeproTech) | significantly increased | induce | induce | induced | induced |  |  |  |  |  |  |  |  |  |  |  |  |  |
| lipopolysaccharide [LPS] |  |  |  |  |  | dramatic increase in TRAP+ osteoclasts | dramatic increase | dramatic increase | decrease | about 55% | 0.4 | about 66% | significant increase in progenitor mobilization | about 95% | about 100 colonies per 5×10^5 seeded cells | about 53% | about 78% | significant increase |
